Experiment in all cases: relative viability (nuclei count vs DMSO), 5 days (fraction); higher = more cells survive
Compound in the test “Dovitinib + Navitoclax”: CN1CCN(c2ccc3nc(-c4c(N)c5c(F)cccc5[nH]c4=O)[nH]c3c2)CC1 [Dovitinib] + CC1(C)CCC(c2ccc(Cl)cc2)=C(CN2CCN(c3ccc(C(=O)NS(=O)(=O)c4ccc(N[C@H](CCN5CCOCC5)CSc5ccccc5)c(S(=O)(=O)C(F)(F)F)c4)cc3)CC2)C1 [Navitoclax] (partner 0.5 µM)
The procedure, abridged: (§1)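 Relative viability divides the nuclei count in treated wells by that in vehicle wells. Lung cancer cell lines were seeded in 1536-well plates, dosed by pin tool the next day, and fixed and stained after 5 days in one step with final 0.05% Triton X-100, 1% formaldehyde and 1 ug/ml Hoechst. Dosing was a single drug or a fixed anchor-drug dose plus five library-drug doses (not always all listed) in √10 steps, and values are medians of duplicate plates imaged at 4×.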

Compound in the test “Dovitinib + Trametinib”: CN1CCN(c2ccc3nc(-c4c(N)c5c(F)cccc5[nH]c4=O)[nH]c3c2)CC1 [Dovitinib] + CC(=O)Nc1cccc(-n2c(=O)n(C3CC3)c(=O)c3c(Nc4ccc(I)cc4F)n(C)c(=O)c(C)c32)c1 [Trametinib] (partner 0.02 µM)
The procedure, abridged: as §1

Compound in the test “Dovitinib + Pemetrexed”: CN1CCN(c2ccc3nc(-c4c(N)c5c(F)cccc5[nH]c4=O)[nH]c3c2)CC1 [Dovitinib] + Nc1nc2[nH]cc(CCc3ccc(C(=O)N[C@@H](CCC(=O)O)C(=O)O)cc3)c2c(=O)[nH]1 [Pemetrexed] (partner 0.2 µM)
The procedure, abridged:
as §1

Compound in the test “Dovitinib + Phenformin”: CN1CCN(c2ccc3nc(-c4c(N)c5c(F)cccc5[nH]c4=O)[nH]c3c2)CC1 [Dovitinib] + N=C(N)NC(=N)NCCc1ccccc1 [Phenformin] (partner 250 µM)
The procedure, abridged: as §1

For the cell line NCI-H2087, the relative viability worked out at 1.07 with Dovitinib + Navitoclax (first compound 0.02 µM); 0.941 with Dovitinib + Navitoclax (first compound 0.06325 µM); 1.01 with Dovitinib + Navitoclax (first compound 0.2 µM); 1.07 with Dovitinib + Navitoclax (first compound 0.6325 µM); 0.981 in the test with Dovitinib + Navitoclax (first compound 2 µM); 0.274 in the test with Dovitinib + Trametinib (first compound 0.02 µM). Also, the relative viability with Dovitinib + Trametinib (first compound 0.06325 µM) is 0.221; in the test with Dovitinib + Trametinib (first compound 0.2 µM), 0.251; with Dovitinib + Trametinib (first compound 0.6325 µM) it was 0.196; with Dovitinib + Trametinib (first compound 2 µM) it was 0.214; with Dovitinib + Pemetrexed (first compound 0.02 µM), 0.755; with Dovitinib + Pemetrexed (first compound 0.06325 µM) it was 0.668. Further, the relative viability was found to be 0.661 with Dovitinib + Pemetrexed (first compound 0.2 µM); 0.716 in the test with Dovitinib + Pemetrexed (first compound 0.6325 µM); 0.616 in the test with Dovitinib + Pemetrexed (first compound 2 µM); 0.415 with Dovitinib + Phenformin (first compound 0.02 µM); 0.437 with Dovitinib + Phenformin (first compound 0.06325 µM); 0.516 with Dovitinib + Phenformin (first compound 0.2 µM). Besides, the results for the relative viability with Dovitinib + Phenformin (first compound 0.6325 µM) and with Dovitinib + Phenformin (first compound 2 µM) were 0.53 and 0.467, respectively.
For the cell line LU99A, the relative viability in the test with Dovitinib + Navitoclax (first compound 0.02 µM) came to 0.78; in the test with Dovitinib + Navitoclax (first compound 0.06325 µM) it was 0.787; in the test with Dovitinib + Navitoclax (first compound 0.2 µM) it was 0.747; in the test with Dovitinib + Navitoclax (first compound 0.6325 µM) it was 0.774; with Dovitinib + Navitoclax (first compound 2 µM), 0.727; with Dovitinib + Trametinib (first compound 0.02 µM), 0.534. For the same cell line, the relative viability with Dovitinib + Trametinib (first compound 0.06325 µM) came out at 0.505; with Dovitinib + Trametinib (first compound 0.2 µM) it was 0.541; with Dovitinib + Trametinib (first compound 0.6325 µM), 0.481; in the test with Dovitinib + Trametinib (first compound 2 µM), 0.557; with Dovitinib + Pemetrexed (first compound 0.02 µM), 0.169; with Dovitinib + Pemetrexed (first compound 0.06325 µM) it was 0.304. In addition, the relative viability with Dovitinib + Pemetrexed (first compound 0.2 µM) worked out at 0.165; in the test with Dovitinib + Pemetrexed (first compound 0.6325 µM), 0.217; with Dovitinib + Pemetrexed (first compound 2 µM), 0.18; with Dovitinib + Phenformin (first compound 0.02 µM), 0.814; in the test with Dovitinib + Phenformin (first compound 0.06325 µM) it was 0.811; with Dovitinib + Phenformin (first compound 0.2 µM), 0.926. The relative viability with Dovitinib + Phenformin (first compound 0.6325 µM) came out at 0.86; with Dovitinib + Phenformin (first compound 2 µM), 0.864.
Turning to NCI-H1355, the relative viability worked out at 0.917 with Dovitinib + Navitoclax (first compound 0.02 µM); 0.958 in the test with Dovitinib + Navitoclax (first compound 0.06325 µM); 1.04 with Dovitinib + Navitoclax (first compound 0.2 µM); 0.985 with Dovitinib + Navitoclax (first compound 0.6325 µM); 1.08 with Dovitinib + Navitoclax (first compound 2 µM); 0.461 in the test with Dovitinib + Trametinib (first compound 0.02 µM). In addition, the relative viability amounted to 0.405 with Dovitinib + Trametinib (first compound 0.06325 µM); 0.475 with Dovitinib + Trametinib (first compound 0.2 µM); 0.45 in the test with Dovitinib + Trametinib (first compound 0.6325 µM); 0.492 with Dovitinib + Trametinib (first compound 2 µM); 1.08 with Dovitinib + Pemetrexed (first compound 0.02 µM); 0.945 with Dovitinib + Pemetrexed (first compound 0.06325 µM). The relative viability was 1.16 with Dovitinib + Pemetrexed (first compound 0.2 µM); 1.1 with Dovitinib + Pemetrexed (first compound 0.6325 µM); 1.1 with Dovitinib + Pemetrexed (first compound 2 µM); 0.428 in the test with Dovitinib + Phenformin (first compound 0.02 µM); 0.428 with Dovitinib + Phenformin (first compound 0.06325 µM); 0.477 with Dovitinib + Phenformin (first compound 0.2 µM). Besides, the relative viability with Dovitinib + Phenformin (first compound 0.6325 µM) was determined as 0.433; with Dovitinib + Phenformin (first compound 2 µM), 0.529.
Turning to NCI-H520, the relative viability was 1.17 in the test with Dovitinib + Navitoclax (first compound 0.02 µM); 1.21 with Dovitinib + Navitoclax (first compound 0.06325 µM); 1.09 with Dovitinib + Navitoclax (first compound 0.2 µM); 1.03 with Dovitinib + Navitoclax (first compound 0.6325 µM); 0.905 with Dovitinib + Navitoclax (first compound 2 µM); 0.599 in the test with Dovitinib + Trametinib (first compound 0.02 µM). Moreover, the relative viability with Dovitinib + Trametinib (first compound 0.06325 µM) is 0.619; in the test with Dovitinib + Trametinib (first compound 0.2 µM), 0.812; with Dovitinib + Trametinib (first compound 0.6325 µM) it was 0.586; in the test with Dovitinib + Trametinib (first compound 2 µM), 0.638; in the test with Dovitinib + Pemetrexed (first compound 0.02 µM), 0.687; in the test with Dovitinib + Pemetrexed (first compound 0.06325 µM), 0.683. The relative viability in the test with Dovitinib + Pemetrexed (first compound 0.2 µM) was 0.615; in the test with Dovitinib + Pemetrexed (first compound 0.6325 µM), 0.596; with Dovitinib + Pemetrexed (first compound 2 µM), 0.635; in the test with Dovitinib + Phenformin (first compound 0.02 µM) it was 0.558; with Dovitinib + Phenformin (first compound 0.06325 µM), 0.572; in the test with Dovitinib + Phenformin (first compound 0.2 µM), 0.625. The relative viability in the test with Dovitinib + Phenformin (first compound 0.6325 µM) stood at 0.514; with Dovitinib + Phenformin (first compound 2 µM) it was 0.545.
Consider NCI-H661, for which the relative viability in the test with Dovitinib + Trametinib (first compound 0.02 µM) was 0.581; in the test with Dovitinib + Trametinib (first compound 0.06325 µM) it was 0.617; with Dovitinib + Trametinib (first compound 0.2 µM), 0.678; in the test with Dovitinib + Trametinib (first compound 0.6325 µM), 0.637; in the test with Dovitinib + Trametinib (first compound 2 µM), 0.607; with Dovitinib + Pemetrexed (first compound 0.02 µM), 0.888. Besides, the relative viability with Dovitinib + Pemetrexed (first compound 0.06325 µM) worked out at 0.927; with Dovitinib + Pemetrexed (first compound 0.2 µM), 0.935; with Dovitinib + Pemetrexed (first compound 0.6325 µM), 0.878; in the test with Dovitinib + Pemetrexed (first compound 2 µM), 0.949; in the test with Dovitinib + Phenformin (first compound 0.02 µM), 0.267; in the test with Dovitinib + Phenformin (first compound 0.06325 µM) it was 0.328. The relative viability in the test with Dovitinib + Phenformin (first compound 0.2 µM) stood at 0.304; in the test with Dovitinib + Phenformin (first compound 0.6325 µM), 0.268; with Dovitinib + Phenformin (first compound 2 µM) it was 0.308.
On to NCI-H650, for which the relative viability was determined as 1.02 with Dovitinib + Trametinib (first compound 0.02 µM); 0.952 with Dovitinib + Trametinib (first compound 0.06325 µM); 1.08 in the test with Dovitinib + Trametinib (first compound 0.2 µM); 0.946 with Dovitinib + Trametinib (first compound 0.6325 µM); 1.21 with Dovitinib + Trametinib (first compound 2 µM); 0.908 in the test with Dovitinib + Pemetrexed (first compound 0.02 µM). Further, the relative viability with Dovitinib + Pemetrexed (first compound 0.06325 µM) came out at 0.856; with Dovitinib + Pemetrexed (first compound 0.2 µM), 0.898; with Dovitinib + Pemetrexed (first compound 0.6325 µM), 0.983; with Dovitinib + Pemetrexed (first compound 2 µM), 0.956; with Dovitinib + Phenformin (first compound 0.02 µM), 0.442; in the test with Dovitinib + Phenformin (first compound 0.06325 µM), 0.417. Also, the relative viability in the test with Dovitinib + Phenformin (first compound 0.2 µM) was found to be 0.446; with Dovitinib + Phenformin (first compound 0.6325 µM), 0.461; in the test with Dovitinib + Phenformin (first compound 2 µM), 0.504.
As for NCI-H647, the relative viability was found to be 0.958 with Dovitinib + Navitoclax (first compound 0.02 µM); 1.04 with Dovitinib + Navitoclax (first compound 0.06325 µM); 1.14 with Dovitinib + Navitoclax (first compound 0.2 µM); 1.04 in the test with Dovitinib + Navitoclax (first compound 0.6325 µM); 0.949 with Dovitinib + Navitoclax (first compound 2 µM); 0.456 in the test with Dovitinib + Trametinib (first compound 0.02 µM). The relative viability with Dovitinib + Trametinib (first compound 0.06325 µM) was found to be 0.49; in the test with Dovitinib + Trametinib (first compound 0.2 µM) it was 0.435; in the test with Dovitinib + Trametinib (first compound 0.6325 µM) it was 0.399; in the test with Dovitinib + Trametinib (first compound 2 µM), 0.494; with Dovitinib + Pemetrexed (first compound 0.02 µM), 0.194; with Dovitinib + Pemetrexed (first compound 0.06325 µM), 0.189. In addition, the relative viability in the test with Dovitinib + Pemetrexed (first compound 0.2 µM) came out at 0.154; in the test with Dovitinib + Pemetrexed (first compound 0.6325 µM) it was 0.191; with Dovitinib + Pemetrexed (first compound 2 µM), 0.177; with Dovitinib + Phenformin (first compound 0.02 µM), 0.396; with Dovitinib + Phenformin (first compound 0.06325 µM), 0.49; with Dovitinib + Phenformin (first compound 0.2 µM) it was 0.638. For the same cell line, the relative viability with Dovitinib + Phenformin (first compound 0.6325 µM) amounted to 0.621; with Dovitinib + Phenformin (first compound 2 µM) it was 0.48.
Take 201T: the relative viability with Dovitinib + Navitoclax (first compound 0.02 µM) amounted to 1.12; with Dovitinib + Navitoclax (first compound 0.06325 µM) it was 1.21; with Dovitinib + Navitoclax (first compound 0.6325 µM) it was 1.22; with Dovitinib + Navitoclax (first compound 2 µM) it was 1.21; with Dovitinib + Trametinib (first compound 0.02 µM) it was 0.706; with Dovitinib + Trametinib (first compound 0.06325 µM) it was 0.701. For the same cell line, the relative viability with Dovitinib + Trametinib (first compound 0.2 µM) came to 0.699; with Dovitinib + Trametinib (first compound 0.6325 µM), 0.748; with Dovitinib + Trametinib (first compound 2 µM) it was 0.674; in the test with Dovitinib + Pemetrexed (first compound 0.02 µM), 0.387; with Dovitinib + Pemetrexed (first compound 0.06325 µM) it was 0.392; in the test with Dovitinib + Pemetrexed (first compound 0.2 µM), 0.366. In addition, the relative viability with Dovitinib + Pemetrexed (first compound 0.6325 µM) stood at 0.34; in the test with Dovitinib + Pemetrexed (first compound 2 µM) it was 0.298; in the test with Dovitinib + Phenformin (first compound 0.02 µM), 0.449; with Dovitinib + Phenformin (first compound 0.06325 µM), 0.42; with Dovitinib + Phenformin (first compound 0.2 µM), 0.463; with Dovitinib + Phenformin (first compound 0.6325 µM) it was 0.409. Also, the relative viability in the test with Dovitinib + Phenformin (first compound 2 µM) came out at 0.459.

The values are drawn from the supplement of paper PMC10307832.
